Literature values, collected in patent US20040197404A1, “Extended release oral dosage form” (priority 2001, published 2004).

Conditions: in vivo

NC(=O)c1ccc(F)c2c1C[C@@H](N(C1CCC1)C1CCC1)CO2.O.O=C(O)C(O)C(O)C(=O)O [(R)-3-N,N-dicyclobutylamino-8-fluoro-3,4-dihydro-2H-1-benzopyran-5-carboxamide hydrogen (2R,3R)-tartrate monohydrate]
plasma elimination half-life, t1/2: 1.5 h
